# Reference: patent US7084136B2, “Drug composition antagonistic to both PGD2/TXA2 receptors” (Shionogi & Co., Ltd., priority 2000, dated 2006)
# Read-outs that look alike come from different tables or passages of the source.
# Experiments:
# PGD2 receptor [1] = target: T1, PGD2 receptor (Homo sapiens, UniProt Q13258); test: Antagonistic activity against PGD2 receptor using human platelet (inhibition of PGD2-induced cAMP increase); type: cell-based
# T1 construct: A suspension adjusted to contain the platelets at a final concentration of 5×10^8/ml was warmed at 37° C; endogenous in cells; host or cells: washed human platelets from a healthy volunteer
# T1 sequence (Q13258 1-359): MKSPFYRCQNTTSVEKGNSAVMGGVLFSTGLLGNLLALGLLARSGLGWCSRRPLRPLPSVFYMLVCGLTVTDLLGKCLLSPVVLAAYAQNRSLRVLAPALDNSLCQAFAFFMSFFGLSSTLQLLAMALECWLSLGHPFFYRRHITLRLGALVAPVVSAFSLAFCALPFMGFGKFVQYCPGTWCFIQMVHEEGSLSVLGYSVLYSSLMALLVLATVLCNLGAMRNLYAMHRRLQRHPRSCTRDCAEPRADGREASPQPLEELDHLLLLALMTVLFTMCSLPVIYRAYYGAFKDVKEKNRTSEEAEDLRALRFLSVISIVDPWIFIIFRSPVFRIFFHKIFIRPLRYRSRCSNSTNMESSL
# Experimental: Experiment 3 Evaluation of Antagonistic Activity Against PGD2 Receptor
# Receptor Using Human Platelet
# Peripheral blood was collected from a healthy volunteer using a syringe in which 1/9 volume of a citric acid/dextrose solution was previously added. The sample was subjected to centrifugation at 1200 rpm for 10 min to obtain the supernatant (PRP: platelet rich plasma). The resultant PRP was washed 3 times with a washing buffer and the number of platelets was counted with a micro cell counter. A suspension adjusted to contain the platelets at a final concentration of 5×10^8/ml was warmed at 37° C., then subjected to the pre-treatment with 3-isobutyl-1-methylxanthine (0.5 mM) for 5 min. To the suspension was added a test compound diluted at various concentration, and 10 minutes later, 0.1 μM PGD2 was added to induce the reaction 2 minutes later, hydrochloric acid was added to terminate the reaction. The platelet was destroyed with an ultrasonic homogenizer. After centrifugation, the cAMP in the supernatant was determined by radioimmunoassay. PGD2 receptor antagonism of a drug was evaluated as follows: the inhibition rate regarding cAMP increased by the addition of PGD2 was determined at each concentration, and the concentration of the drug required for 50% inhibition (IC50) was calculated.
# TXA2 receptor = target: T2, TXA2 receptor (Homo sapiens, UniProt P21731); test: Binding activity to TXA2 receptor ([3H](+)-S-145 sodium salt, human platelet membrane fraction)
# T2 construct: The human platelet membrane fraction was prepared in accordance with Experiment 1 (1); from tissue; host or cells: human platelet membrane fraction from blood of healthy volunteers
# T2 sequence (P21731 1-343): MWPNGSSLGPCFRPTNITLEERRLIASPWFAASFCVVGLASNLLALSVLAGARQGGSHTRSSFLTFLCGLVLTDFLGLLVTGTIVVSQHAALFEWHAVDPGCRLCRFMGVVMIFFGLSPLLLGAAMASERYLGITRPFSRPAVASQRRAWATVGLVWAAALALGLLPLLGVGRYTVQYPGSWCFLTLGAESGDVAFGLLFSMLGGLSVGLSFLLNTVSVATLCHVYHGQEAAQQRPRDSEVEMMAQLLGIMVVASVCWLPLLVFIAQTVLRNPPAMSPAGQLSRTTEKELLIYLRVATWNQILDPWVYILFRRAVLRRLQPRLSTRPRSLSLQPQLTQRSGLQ
# Experimental: Experiment 2 Binding Activity to TXA2 Receptor
# (§1) (1) Preparation of Human Platelet Membrane Fraction
# The human platelet membrane fraction was prepared in accordance with Experiment 1 (1).
# (2) Binding to TXA2 Receptor
# To a binding-reaction solution (50 mM Tris/HCl, pH 7.4, 10 mM MgCl2) (0.2 ml) were added the human platelet membrane fraction (0.05 mg) and 2 nM Sodium [^3H](+)-(5Z)-7-[3-endo-[(phenylsulfonyl)amino]bicyclo[2.2.1]hept-2-exo-yl]heptenoate (Japanese Patent Publication (Kokoku) No.79060/1993, hereinafter referred to as (+)-S-145 sodium salt) (26.4 Ci/mmol), and the mixture was reacted at room temperature for 90 min. After the reaction, the resultant mixture was filtered through a glass fiber filter paper and washed several times with cooled physiological saline, then the radioactivity retained on the filter paper was measured. The specific-binding ratio was calculated by subtracting the non-specific binding ratio (the radio activity similarly determined in the presence of 10 μM (+)-S-145 sodium salt) from the total binding. The inhibitory activity of each compound was expressed as the concentration required for 50% inhibition (IC50), which was determined by depicting a substitution curve by plotting the binding ratio (%) in the presence of each compound, where the binding ratio in the absence of a test compound is 100%.
# PGD2 receptor [2] = target: T1, PGD2 receptor; test: Binding activity to PGD2 receptor ([3H]PGD2, human platelet membrane fraction)
# Experimental: Experiment 1 Binding Activity to PGD2 Receptor
# as §1
# Blood was collected using a plastic syringe containing 3.8% sodium citrate from the vein of healthy volunteers (adult male and female), then put into a plastic test tube and mixed by slow-reversion. The sample was then centrifuged at 1800 rpm, for 10 min at room temperature, and the supernatant containing PRP (platelet-rich plasma) was collected. The PRP was re-centrifuged at 2300 rpm, for 22 min at room temperature to obtain platelets. The platelets were homogenized using a homogenizer (Ultra-Turrax) followed by centrifugation 3 times at 20,000 rpm, 10 min at 4° C. to obtain a platelet membrane fraction. After protein determination, the membrane fraction was adjusted to 2 mg/ml and preserved in a refrigerator at −80° C. until using for the binding test.
# (2) Binding to PGD2 Receptor
# To a binding-reaction solution (50 mM Tris/HCl, pH 7.4, 5 mM MgCl2) (0.2 ml) were added the human platelet membrane fraction (0.1 mg) and 5 nM [^3H]PGD2 (115 Ci/mmol), and the mixture was reacted at 4° C. for 90 min. After the reaction, the mixture was filtered through a glass fiber filter paper and washed several times with cooled physiological saline, then the radioactivity retained on the filter paper was measured. The specific-binding ratio was calculated by subtracting the non-specific binding ratio which is the radioactivity similarly measured in the presence of 10 μM PGD2 from the total binding. The inhibitory activity of each compound was expressed as the concentration required for 50% inhibition (IC50), which was determined by depicting a substitution curve by plotting the binding ratio (%) in the presence of each compound, where the binding ratio in the absence of a test compound is 100%.
# [3] = human platelet, 0.1 μM PGD2, read-out: Inhibitory activity for the increase of cAMP caused by PGD2 in human platelet IC50
# [4] = human platelet membrane fraction, 2 nM [3H](+)-S-145 sodium salt, read-out: Binding activity to TXA2 receptor in human platelet membrane fraction IC50
# [5] = human platelet membrane fraction, read-out: Binding activity to PGD2 receptor in human platelet membrane fraction IC50
Compound,"IC50 (PGD2 receptor [1]; comparative experiment in accordance with Experiment 3, read-out: Experiment 3 Antagonistic activity against PGD2 receptor IC50) [nM]","IC50 (TXA2 receptor; comparative experiment in accordance with Experiment 2, read-out: Experiment 2 Antagonistic activity against TXA2 receptor IC50) [nM]","IC50 (PGD2 receptor [2]; comparative experiment in accordance with Experiment 1, read-out: Experiment 1 Antagonistic activity against PGD2 receptor IC50) [nM]",IC50 (PGD2 receptor [1]; [3]) [nM],IC50 (TXA2 receptor; [4]) [nM],IC50 (PGD2 receptor [2]; [5]) [nM]
"CC1(C)[C@H]2C[C@H](C/C=C\CCCC(=O)O)[C@@H](NC(=O)c3csc4ccccc34)[C@@H]1C2 [B-1, reference compound]",30,370,22,,,
O=C(O)CCCC[C@H]1[C@@H]2CC[C@@H](C2)[C@@H]1NC(=O)c1ccc(Sc2cccs2)s1 [I-5A-59a],,,,79,11,
O=C(O)CCCCCC[C@H]1[C@@H]2CC[C@@H](C2)[C@@H]1NC(=O)c1ccc(Sc2cccs2)s1 [I-7A-59a],,,,12,9.8,
O=C(O)COCCCC[C@H]1[C@@H]2CC[C@@H](C2)[C@@H]1NC(=O)c1ccc(Sc2cccs2)s1 [I-7M-59a],,,,24,40,
O=C(O)CCC/C=C\C[C@H]1[C@@H]2CC[C@@H](C2)[C@@H]1NC(=O)c1ccc(S(=O)(=O)n2cccc2)cc1 [I-10],,,,1.8,92,1.6
O=C(O)CCC/C=C\C[C@H]1[C@@H]2CC[C@@H](C2)[C@@H]1NC(=O)c1ccc(Cc2ccccc2)s1 [I-31],,,,5.7,130,8.2
O=C(O)CCC/C=C\C[C@H]1[C@@H]2CC[C@@H](C2)[C@@H]1NC(=O)c1ccc(S(=O)(=O)c2cccs2)s1 [I-47],,,,7,6.2,4.1
O=C(O)CCC/C=C\C[C@H]1[C@@H]2CC[C@@H](C2)[C@@H]1NC(=O)c1ccc(Sc2cccs2)s1 [I-59],,,,4.6,16,0.41
O=C(O)CCC/C=C\C[C@H]1[C@@H]2CC[C@@H](C2)[C@@H]1NC(=O)c1ccc(SCc2cccs2)cc1 [I-66],,,,44,34,4.6
COc1ccccc1Cc1ccc(C(=O)N[C@H]2[C@H]3CC[C@H](C3)[C@@H]2CCCC/C=C/C(=O)O)s1 [I-71-126a],,,,21,61,
Cc1ccc(C)n1S(=O)(=O)c1ccc(C(=O)N[C@H]2[C@H]3CC[C@H](C3)[C@@H]2CCCC/C=C/C(=O)O)s1 [I-71-270a],,,,26,0.9,
O=C(O)CCC/C=C\C[C@H]1[C@@H]2CC[C@@H](C2)[C@@H]1NC(=O)c1ccc(Sc2ccsc2)s1 [I-79],,,,24,15,0.42
O=C(O)CCC/C=C\C[C@H]1[C@@H]2CC[C@@H](C2)[C@@H]1NC(=O)c1ccc(S(=O)(=O)c2ccsc2)s1 [I-80],,,,39,5.2,6.6
Cc1ccc(S(=O)(=O)c2ccc(C(=O)N[C@H]3[C@H]4CC[C@H](C4)[C@@H]3C/C=C\CCCC(=O)O)s2)s1 [I-82],,,,53,1.8,32
O=C(O)CCC/C=C\C[C@H]1[C@@H]2CC[C@@H](C2)[C@@H]1NC(=O)c1cc(Cc2cccs2)cs1 [I-88],,,,4.7,78,7.6
O=C(O)CCC/C=C\C[C@H]1[C@@H]2CC[C@@H](C2)[C@@H]1NC(=O)c1ccc(Cc2cccs2)s1 [I-93],,,,8.4,72,7
O=C(O)CCC/C=C\C[C@H]1[C@@H]2CC[C@@H](C2)[C@@H]1NC(=O)c1ccn(S(=O)(=O)c2cccs2)c1 [I-94],,,,10,83,1
O=C(O)CCC/C=C\C[C@H]1[C@@H]2CC[C@@H](C2)[C@@H]1NC(=O)c1ccc(CSc2cccs2)s1 [I-104],,,,1.6,39,0.1
O=C(O)CCC/C=C\C[C@H]1[C@@H]2CC[C@@H](C2)[C@@H]1NC(=O)c1ccc(SCc2cccs2)s1 [I-106],,,,9.3,13,13
O=C(O)CCC/C=C\C[C@H]1[C@@H]2CC[C@@H](C2)[C@@H]1NC(=O)c1ccc(S(=O)(=O)c2cccc(O)c2)s1 [I-117],,,,47,3.8,9.1
Cc1ccc(Cc2ccc(C(=O)N[C@H]3[C@H]4CC[C@H](C4)[C@@H]3C/C=C\CCCC(=O)O)s2)c(C)c1 [I-128],,,,10,48,20
Cc1ccc(Cc2ccc(C(=O)N[C@H]3[C@H]4CC[C@H](C4)[C@@H]3C/C=C\CCCC(=O)O)s2)s1 [I-129],,,,22,52,11
Cc1cccc(Cc2ccc(C(=O)N[C@H]3[C@H]4CC[C@H](C4)[C@@H]3C/C=C\CCCC(=O)O)s2)c1 [I-131],,,,41,19,44
Cc1cccc(SCc2ccc(C(=O)N[C@H]3[C@H]4CC[C@H](C4)[C@@H]3C/C=C\CCCC(=O)O)s2)c1 [I-132],,,,43,12,32
